Here are results for 1 molecule from patent publication US20120309087A1, “CANCER THERAPY” (University Court of The University of Dundee, priority 2006, published 2012).

Assay [1] concerns ARE-driven luciferase activity in AREc32 cells. The assay can be described thus: Antagonism of induced ARE-driven luciferase activity in AREc32 cells. Format: cell-based, human.
The test system of assay [2] is binding of Nrf2 to an ARE sequence. The assay can be described thus: Biotinylated ARE oligonucleotide pull-down assay, AREc32 nuclear extracts. The settings on record: 10 μM tBHQ with 1 μM ATRA, 24 h.
For assay [3], the system named is AKR1C protein in Caco-2 cells. The assay is described as follows: AKR1C protein in Caco-2 cells (Western blotting). Format: cell-based, human. The settings on record: sulforaphane 5 μM, BTB09463 5 μM or Retinoic acid 1 μM, 24 hrs. Here is the method: Method: AREc32 cells were seeded out in 96 well plates and treated with DMSO (control), tBHQ (50 μM), tBHQ+BTB09463 (5 μM) or tBHQ+Retinoic acid (1 μM). After 24 hours incubation, cells were washed and lysed before measuring luciferase activity. BTB09463 is 1-{4-[(3,4-dichlorobenzyl)oxy]phenyl}ethan-1-one. […] Method: AREc32 cells were seeded out in 96 well plates and dosed with BTB09463 (2.5, 5 or 10 μM) for 0, 24 or 48 hrs before treatment with tBHQ (50 μM). 24 hours after the addition of tBHQ, cells were washed and lysed before measuring luciferase activity. […] Method: ARE c32 cells were seeded out in 96 well plates and treated with DMSO (control), tBHQ (50 μM), tBHQ+retinoid (0.25, 0.5 and 1 μM). After 24 hours incubation, cells were washed and lysed before measuring luciferase activity. […] See FIG. 16 Method: A. Caco-2 cells were treated with the known ARE-gene inducer sulforaphane (5 μM), either alone or concomitantly with BTB09463 (5 μM) or Retinoic acid (1 μM). After 24 hrs, cell lysates were prepared and Western blotting performed to measure the levels of AKR1C protein. B. MCF7 cells were treated with sulforaphane (5 μM), either alone or concomitantly with BTB09463 (5 μM). After 24 hrs, cell lysates were prepared and Western blots performed to detect the levels of AKR1C and NQO1; GAPDH was used as a loading control in MCF7 cells. […] Method: Caco-2 cells were treated with DMSO (control), BTB09463 (5 μM), sulforaphane (5 μM) or a combination of sulforaphane plus BTB09463. After 24 hrs treatment, cells were harvested and RNA isolated. cDNA for each sample was generated by reverse transcription and subsequently used in real time PCR analysis of gene transcription (TaqMan analysis) for the ARE-driven genes AKR1C1 and NQO1. Data was normalised to the internal control 18S RNA and the relative levels of AKR1C1 and NQO1 calculated using the comparative CT method. […] Method: MCF7 cells were treated with the known ARE-gene inducer sulforaphane (5 μM), either alone or with various retinoids (0.5 μM). After 24 hrs, cell lysates were prepared and Western blots were performed to detect the levels of AKR1C protein present. […] See FIG. 19 Method: ARE reporter cell line AREc23 was seeded into 96 well plates and treated with a previously determined non-toxic concentration of cytotoxic drug. After 24 hours incubation, cells were washed and lysed before measuring luciferase activity. […] See FIG. 20a Method: ARE reporter cell line AREc23 was seeded into 96 well plates and treated with DMSO (control), Carmustine (100 μM), Carmustine+BTB09463 (5 μM) or Carmustine+Retinoic acid (5 μM) After 24 hours incubation, cells were washed and lysed before measuring luciferase activity. […] After 24 hours incubation, cells were washed and lysed before measuring luciferase activity. […]
A general note: A western blot detects proteins with antibodies after separation by electrophoresis.

The subject of assay [4] is AKR1C protein in AREc32 cells. The assay is described as follows: AKR1C protein in AREc32 cells (western blotting). The settings on record: 1 μM ATRA, 10 μM tBHQ; scanning of the Western blots.
Assay [5] concerns GST, GCLC and NQO1 in the small intestine. The assay can be described thus: ARE-regulated proteins in small intestine of mice on vitamin A deficient diet. Format: in vivo. The settings on record: wild-type mice; ATRA i.p. 10 mg/kg daily for last 2 weeks of VAD diet. As for the experimental part: Wild-type (nrf2^+/+) and knockout (KO, nrf2^−/−) mice, 8 weeks old, were placed on control or vitamin A deficient (VAD) diet for six weeks as described in “Materials and Methods II”. Portions (5 μg protein) of crude extracts from small intestine of wild-type and KO mice were subjected to Western blotting with specific antibodies against NQO1, GstM5, GstA1/2 and GCLC. Each lane contains a sample from an individual mouse. […] These animals were sacrificed and immunoblotting for GST, GCLC and NQO1 performed as before.
Homozygous Nrf2 KO mice and mouse genotyping were as described previously (Itoh et al., 1997). Two month old, C57BL/6 nrf2^−/− and nrf2^+/+ male mice were used in this study. Animals were maintained in a 12-h light-dark cycle, with free access to food and water. The mice were weighed daily during the experiment period. All animal procedures were carried out under UK Home Office license and after gaining local ethical committee approval.
Two feeding experiments were carried out. In Experiment 1, at the first stage, which lasted for four weeks, Nrf2 (+/+) mice were maintained on a retinoic acid deficient VAD diet (Special Diet Services, Witham, Essex, UK). […] In experiment 2, Nrf2 (−/−) mice were maintained on control or VAD diet for six weeks. […]

For assay [6], the system named is AKR1C mRNA in AREc32 cells. The assay is described as follows: AKR1C mRNA in AREc32 cells (TaqMan). For orientation: Quantitative PCR measures a nucleic acid by following its amplification.
For assay [7], the system named is AKR1C1, NQO1, GCLC, GCLM mRNA in A549 cells. The assay is described as follows: Constitutive mRNA of ARE-driven genes in A549 cells (Taqman). Format: cell-based, human. The conditions noted are these: 24 hrs.
Assay [8] has as its system protein complexes binding to an ARE sequence. The assay is described as follows: Electrophoretic mobility shift assay with ARE probe, AREc32 nuclear extracts. The conditions noted are these: 10 μM tBHQ with 1 μM ATRA, 24 h.
For the next assay, the system named is Nrf2. The assay is described as follows: Nuclear Nrf2 level in AREc32 cells (western blot of nuclear extracts). The conditions noted are these: 10 μM tBHQ plus 1 μM ATRA, 24 h.
Assay [9] deals with interaction between RARα and Nrf2 (Homo sapiens, UniProt P10276). The assay is described as follows: Co-immunoprecipitation of RARα and Nrf2. Format: binding. The conditions noted are these: co-immunoprecipitation experiments.
Where [10] appears, read: 1 μM ATRA with 10 μM tBHQ, acrolein, NF or Sul, 24 h.

interaction between RARα and Nrf2, sequence (P10276 whole entry): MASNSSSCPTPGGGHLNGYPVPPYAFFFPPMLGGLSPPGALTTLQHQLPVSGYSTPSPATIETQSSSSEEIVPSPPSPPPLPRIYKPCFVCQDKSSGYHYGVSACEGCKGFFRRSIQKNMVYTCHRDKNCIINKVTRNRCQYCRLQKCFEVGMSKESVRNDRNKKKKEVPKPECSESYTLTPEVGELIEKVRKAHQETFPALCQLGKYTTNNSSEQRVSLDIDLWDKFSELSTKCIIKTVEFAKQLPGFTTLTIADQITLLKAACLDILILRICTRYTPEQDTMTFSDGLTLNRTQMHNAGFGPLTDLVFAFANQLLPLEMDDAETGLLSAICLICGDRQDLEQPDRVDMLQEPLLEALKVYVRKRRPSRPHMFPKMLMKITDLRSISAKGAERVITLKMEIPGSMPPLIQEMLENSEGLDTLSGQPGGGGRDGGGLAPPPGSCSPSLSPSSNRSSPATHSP
interaction between RARα and Nrf2, sequence (Q16236 whole entry partner): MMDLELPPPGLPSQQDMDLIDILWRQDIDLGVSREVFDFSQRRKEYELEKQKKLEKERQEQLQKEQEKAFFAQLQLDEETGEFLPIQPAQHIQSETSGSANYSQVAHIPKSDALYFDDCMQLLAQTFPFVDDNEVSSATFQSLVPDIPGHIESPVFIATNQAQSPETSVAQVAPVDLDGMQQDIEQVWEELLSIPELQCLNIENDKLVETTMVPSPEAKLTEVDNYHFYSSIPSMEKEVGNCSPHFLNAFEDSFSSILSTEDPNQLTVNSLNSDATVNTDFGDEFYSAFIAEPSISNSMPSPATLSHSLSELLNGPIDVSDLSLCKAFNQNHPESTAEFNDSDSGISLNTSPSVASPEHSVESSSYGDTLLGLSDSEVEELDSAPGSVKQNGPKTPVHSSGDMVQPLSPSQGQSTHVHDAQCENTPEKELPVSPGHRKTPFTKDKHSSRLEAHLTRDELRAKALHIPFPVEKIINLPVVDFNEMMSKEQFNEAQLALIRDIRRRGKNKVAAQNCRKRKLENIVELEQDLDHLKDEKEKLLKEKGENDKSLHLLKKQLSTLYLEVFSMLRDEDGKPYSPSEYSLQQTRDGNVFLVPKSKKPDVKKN

`CC1=C(/C=C/C(C)=C/C=C/C(C)=C/C(=O)O)C(C)(C)CCC1` [ATRA, all trans-retinoic acid]: in assay [1] (setting [10]), the “effect on increase in ARE-driven luciferase activity by inducing agents” value is “significantly attenuated” and the “luciferase activity following subtraction of the DMSO control” value is “almost complete ablation of luciferase activity”. In addition, the “induction of ARE-driven luciferase activity by anticancer drugs” value in [1] (1 μM ATRA with cisplatin, melphalan, chlorambucil or BCNU, no BSO) is recorded as “prevented”. The “ARE responses to anticancer drugs after BSO pre-treatment” value in assay [1] (1 μM ATRA, 50 μM BSO pre-treatment, after subtraction of DMSO control) is “reduced almost to background levels”. Moreover, the “lag phase before increase of luciferase activity” value in [1] (10 μM tBHQ plus 1 μM ATRA simultaneously) was 16 h. The “suppression of tBHQ induction of luciferase” value in assay [1] (50 μM tBHQ + 1 μM Retinoic acid, 24 h) is reported as ~75%. Besides, the “carmustine-mediated induction of luciferase activity” value in assay [1] (Carmustine 100 μM + BTB09463 5 μM or Retinoic acid 5 μM, 24 hours) is recorded as “completely suppress”. For the same molecule, the “binding of Nrf2 to the ARE (pull-down)” value in [2] is on record as “inhibited the binding of Nrf2 to the ARE”. For the same molecule, the “sulforaphane induction of AKR1C protein” value in assay [3] is on record as “dramatically reduced”. In [4], the “reduction of tBHQ-induced AKR1C protein” value was “approximately 50%”. In assay [5], the “induction of ARE-driven genes (GstM5, GCLC, NQO1, GstA1) by VAD diet in the small intestine” value is given as “almost completely reversed”. Moreover, the “inhibition of tBHQ induction of AKR1C1 mRNA” value in [6] (1 μM ATRA, after subtracting the DMSO control) was “approximately 85%”. In addition, in [6] (10 μM tBHQ plus 1 μM ATRA, 24 h), the “induction of AKR1C1 mRNA by tBHQ on co-incubation” value was 3 fold. In addition, the “constitutive expression of AKR1C1 mRNA” value in assay [7] (BTB09463 1, 5, 20, 40 μmol/l or retinoids 0.050, 0.20, 0.50, 2.0 μmol/l) is given as “inhibited the constitutive expression of AKR1C1 in a concentration-dependent manner”. In addition, in assay [7] (BTB09463 1-40 μmol/l or retinoic acid 0.050-2.0 μmol/l), the “constitutive mRNA levels of NQO1, GCLC and GCLM” value is “repressed the constitutive mRNA levels of NQO1, GCLC and GCLM in a concentration-dependent manner”. Besides, the “binding of complexes to core ARE sequence (EMSA)” value in assay [8] is reported as “binding was reduced”. Also, the “nuclear translocation / nuclear concentration of Nrf2” value in the assay on Nrf2 is listed as “did not block nuclear translocation of Nrf2”. Besides, the “association between RARα and Nrf2” value in assay [9] is on record as “greatly promoted”.
